Test [1] relates to FMLP-stimulated human neutrophils (superoxide generation). The test can be described thus: Human neutrophil superoxide generation, FMLP-stimulated, cytochrome C reduction. To be noted: for Effect on FMLP Induced Superoxide: stimulated (% > control) / activation at 50 µM: % above control; for activation at 50 µM / inhibition at 50 µM: Homo sapiens; for activation at 50 µM: stimulated at 50 μM, read-out: Effect on FMLP Induced Superoxide: stimulated (% > control); for inhibition at 50 µM: inhibited at 50 μM, read-out: Effect on FMLP Induced Superoxide: inhibited (% < control). Type of test: cell-based. The protocol:
The compounds of the invention are evaluated with respect to superoxide modulating activity according to the following assay procedure:
Human neutrophil superoxide generation:
Superoxide generation by formyl-methionyl-leucyl-phenylalanine (FMLP)-stimulated neutrophils was quantitated by the reduction of cytochrome C (Badwey, J. A., Curnutte, J. T. and Karnovsky, M. L., cis-Polyunsaturated fatty acids induce high levels of superoxide production by human neutrophils. J. Biol. Chem. 256: 12640-12643, 1981.) To 5 million neutrophils in 2.85 ml of Krebs-Ringer phosphate buffer, pH 7.2, 50 ul of inhibitor (in 10% DMSO/buffer), and 50 ul ferricytochrome C (5 mM, stock) were added and preincubated for 3 minutes at 37° C. Absorption measurements at 550 nm were recorded at start of preincubation. Fifty ul FMLP (6 μM, stock) was added to initiate reaction. A plateau was reached within 3 minutes and this reading - initial reading (before addition of FMLP) was used to calculate nanomoles of superoxide generated based on a molar extinction coefficient of 2.1×10^4 cm^-1 mole^-1.
Isolation of human neutrophils:
Human neutrophils were isolated from freshly drawn blood of healthy donors. Two ml of 5% dextran (MW 200,000-300,000) in saline was added to 10 ml aliquots of blood, mixed and placed upright for 45 min. at 37° C. Approx. 8-10 ml of the plasma-white cell suspension from the dextran sedimentation was layered on 3 ml of Ficol-paque in a 15 ml tube and centrifuged at 400 g for 30 min. The supernate, containing plasma and platelets, was discarded by aspiration, and the pellet, containing predominantly neutrophils, was resuspended in 1 ml saline. The suspension was transferred to a clean tube, and pooled with other aliquots of blood treated similarly. The pooled suspension was centrifuged at 350 g for 5 min. and supernate discarded. The pellet was resuspended in 5 ml of 0.05% NaCl with a plastic Pasteur pipette for 25 seconds to lyse contaminating red cells, then 5 ml of 1.75% NaCl added to regain isotonicity. The red cell lysing procedure was repeated, the cells suspended in appropriate buffer (depending on assay) and counted.

Test [2] has as its target T1, 5-lipoxygenase (Rattus norvegicus, UniProt P12527).
T1 construct: supernatant fraction of Rat Basophilic Leukemia Cell Homogenate (RBL-1) serves as a 5-lipoxygenase enzyme source; endogenous in cells; host or cells: RBL-1 (rat basophilic leukemia) cell homogenate, 100,000 x g supernatant
T1 sequence (P12527 1-673): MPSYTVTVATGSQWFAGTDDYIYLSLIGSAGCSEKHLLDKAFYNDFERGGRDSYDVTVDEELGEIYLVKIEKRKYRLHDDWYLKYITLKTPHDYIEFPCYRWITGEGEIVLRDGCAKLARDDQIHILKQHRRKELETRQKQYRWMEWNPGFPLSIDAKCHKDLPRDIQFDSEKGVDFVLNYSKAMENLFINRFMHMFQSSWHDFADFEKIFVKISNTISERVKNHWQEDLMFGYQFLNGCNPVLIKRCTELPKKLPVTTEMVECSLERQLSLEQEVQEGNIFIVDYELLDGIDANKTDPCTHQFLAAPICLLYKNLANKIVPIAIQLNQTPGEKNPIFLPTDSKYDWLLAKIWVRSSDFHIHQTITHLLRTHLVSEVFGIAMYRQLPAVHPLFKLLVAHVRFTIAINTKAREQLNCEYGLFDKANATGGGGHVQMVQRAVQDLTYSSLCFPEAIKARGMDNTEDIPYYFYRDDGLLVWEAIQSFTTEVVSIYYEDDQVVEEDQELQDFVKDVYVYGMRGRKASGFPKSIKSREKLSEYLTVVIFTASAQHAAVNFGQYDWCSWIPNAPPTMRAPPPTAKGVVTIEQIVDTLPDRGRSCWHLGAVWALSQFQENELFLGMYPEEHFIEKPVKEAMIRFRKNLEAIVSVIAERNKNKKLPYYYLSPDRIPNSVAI
The test can be described thus: Inhibition of 5-lipoxygenase, in vitro (5-HETE synthesis, RBL-1 100,000 x g supernatant). Type of test: biochemical. The following applies: RBL-1 homogenate supernatant. As for the experimental part: The compounds of the invention are evaluated with respect to 5-lipoxygenaseinhibition according to the following assay procedure.
Inhibition of 5-lipoxygenase, in vitro: anti-inflammatory, anti-allergy activities.
The 100,000 x g supernatant fraction of Rat Basophilic Leukemia Cell Homogenate (RBL-1) serves as a 5-lipoxygenase enzyme source. The enzyme is incubated with [1-^14 C)-arachidonic acid and Ca++ in the presence and absence of test compound. The product of 5-lipoxygenase, 5-hydroxyeicosatetraenoic acid (5-HETE), is separated by thin-layer chromatography and measured by radioactivity. A compound inhibiting 5-HETE synthesis by 30% or more is considered active at that concentration.

For test [3] the following is noted: versus histamine; cited from earlier work.

The values below come from patent publication US5342838A, “Phenolic thioetheramides” (G. D. Searle & Co., priority 1993, dated 1994).

Structures are written as SMILES.

With `C[C@H](Sc1cc(C(C)(C)C)c(O)c(C(C)(C)C)c1)[C@@H](C)OCC(=O)N(C)CCc1ccccn1` (relative stereo) [Example 14, (±)2S*-[2-[[3,5-bis(1,1-dimethylethyl)-4-hydroxyphenyl]thio]-1R*-methylpropoxy]-N-methyl-N-[2-(2-pyridinyl)ethyl]acetamide], the “Effect on FMLP Induced Superoxide: inhibited (% < control)” value in test [1] (inhibited at 25-50 μM, % below control) is 57%. In test [1] (stimulated at 1-10 μM), the “Effect on FMLP Induced Superoxide: stimulated (% > control)” value (“Effect … (% > control)” below) came to 171%. The IC50 in test [2] was 220 nM.

For the compound `C[C@H](Sc1cc(C(C)(C)C)c(O)c(C(C)(C)C)c1)[C@@H](C)SCC(=O)NCc1ccncc1` (relative stereo) [Example 17, (±)2S*-[[[2-[[3,5-bis(1,1-dimethylethyl)-4-hydroxyphenyl]thio]-1R*-methylpropyl]thio]-N-(4-pyridinylmethyl)acetamide], the “Effect … (% > control)” value in test [1] (stimulated at 1-50 μM) is reported as 60%. This compound also returned an IC50 in test [2] of 200 nM.

For `C[C@H](Sc1cc(C(C)(C)C)c(O)c(C(C)(C)C)c1)[C@@H](C)OCC(=O)N1CCN(Cc2ccccc2)CC1` (relative stereo) [Example 19, (±)1-[2-[2S*-[[3,5-bis(1,1-dimethylethyl)-4-hydroxyphenyl]thio]-1R*-methylpropoxy]-1-oxoethyl]-4-(phenylmethyl)piperazine], the “Effect … (% > control)” value in test [1] (stimulated at 1-50 μM) amounted to 33%. For the same compound, in test [2], the IC50 is 460 nM.

`CC(=O)c1ccc(N2CCN(C(=O)CS[C@H](C)[C@H](C)Sc3cc(C(C)(C)C)c(O)c(C(C)(C)C)c3)CC2)cc1` (relative stereo) [Example 22, (±) 1-(4-acetylphenyl)-4-[2-[[2S*-[[3,5-bis(1,1-dimethylethyl)-4-hydroxyphenyl]thio]-1R*-methylpropyl]thio]-1-oxoethyl]piperazine]: the activation at 50 µM in test [1] (Neutrophil) was 17%. Further, in test [2], the IC50 amounted to 170 nM.

For `C[C@H](Sc1cc(C(C)(C)C)c(O)c(C(C)(C)C)c1)[C@@H](C)OCC(=O)O` (relative stereo) [Formula IV, reference compound], the “Effect on superoxide generation, in words” value in test [1] (FMLP-stimulated human neutrophils) is “inhibited both superoxide generation and 5-lipoxygenase”. Also, the IC50 in test [1] (Neutrophil, FMLP-stimulated human neutrophils, read-out: Effect on FMLP Induced Superoxide: inhibited superoxide generation, IC50) was determined as 11000 nM.

`CC(C)(C)c1cc(SCCSCC(=O)NCc2ccccn2)cc(C(C)(C)C)c1O` [Example 13, 2-[[2-[3,5-bis(1,1-dimethylethyl)-4-hydroxyphenyl]thiolethyl]thio]-N-(2-pyridinylmethyl)acetamide]: the “Effect … (% > control)” value in test [1] (stimulated at 1-50 μM) stood at 171%. The IC50 in test [2] worked out at 160 nM.

Regarding `CC(C)(C)c1cc(SCCSCC(=O)NCc2cccnc2)cc(C(C)(C)C)c1O` [Example 15, 2-[[2-[[3,5-bis (1,1-dimethylethyl)-4-hydroxyphenyl]thio]ethyl]thio]-N-(3-pyridinylmethyl)acetamide], in test [1] (Neutrophil, % below control), the inhibition at 50 µM came to 13%. In addition, the “Effect … (% > control)” value in test [1] (stimulated at 1-10 μM) turned out to be 38%. This compound gave an IC50 in test [2] of 130 nM.

Turning to `CN(CCc1ccccn1)C(=O)CCSCCSc1cc(C(C)(C)C)c(O)c(C(C)(C)C)c1` [Example 16, 3-[[2-[[3,5-bis(1,1-dimethylethyl)-4-hydroxyphenyl]thio]ethyl]thio]-N-methyl-N-[2-(2-pyridinyl)ethyl]propanamide], the inhibition at 50 µM in test [1] (Neutrophil, % below control) was found to be 13%. In addition, in test [1] (stimulated at 1-50 μM), the “Effect … (% > control)” value amounted to 146%. In test [2], this compound registered an IC50 of 160 nM.

Turning to `CN1CCN(C(=O)CSCCSc2cc(C(C)(C)C)c(O)c(C(C)(C)C)c2)CC1` [Example 20, 1-[2-[[2-[[3,5-bis(1,1-dimethyethyl)-4-hydroxypheny]thio]ethyl]thio]-1-oxoethyl]-4-methylpiperazine], the inhibition at 50 µM in test [1] (Neutrophil, % below control) is 100%. Further, the “Effect … (% > control)” value in test [1] (stimulated at 1-25 μM) was 135%. The compound further had an IC50 in test [2] of 400 nM.

On to `CC(C)(C)c1cc(SCCSCCC(=O)N2CCC(N3CCCCC3)CC2)cc(C(C)(C)C)c1O` [Example 21, 1-[3-[[2-[[3,5-bis(1,1-dimethylethyl)-4-hydroxyphenyl]thio]ethyl]thio]-1-oxopropyl]-4-(1-piperidinyl)piperidine], for which the activation at 50 µM in test [1] (Neutrophil) turned out to be 46%. The IC50 in test [2] was 150 nM.

With `CCCCC/C=C\C\C=C/C=C/C=C/[C@@H](SC[C@H](NC(=O)CC[C@H](N)C(=O)O)C(=O)NCC(=O)O)[C@@H](O)CCCC(=O)O` [LTC4], in test [3], the “potency in causing long lasting bronchoconstricting effects relative to histamine” value is reported as “at least 100 times”.
